Laboratory results from US20250236616A1, “IMMUNOMODULATING AZALIDES” (Zoetis Services LLC, priority 2021, published 2025).

What was measured:
Type in all cases: cell-based
IL-1β = test: Whole bovine blood assay, LPS-induced IL-1β (inhibition / overstimulation); conditions: drug concentration giving overstimulation (OS) of LPS-induced IL-1β, top concentration 250 μM
Method: (§1) Whole Blood Assay-Fresh whole bovine blood samples were collected into heparinized vacutainer tubes. Assay plates were prepared with 25 μL of drug diluted in PBS at varying concentration in 96 round bottom wells, then 225 μL of blood was added and plates incubated at 37° C. for 4 hours. Cells were stimulated with LPS (or PBS for controls) by adding 25 μL to the plates at a final concentration of 1 μg/mL and incubated at 37° C. for 18 hours. To collect plasma, plates were centrifuged at 2,000×g for 10 minutes and 100 μL of supernatant was transferred to a 96 well polypropylene plate that was sealed and stored at −80° C. Samples were assayed for cytokines using the Meso Scale Discovery (MSD) platform (described below). This same MSD platform was used to assess cytokines in the plasma collected directly from drug treated animals.
(§2) Cytokine Detection—An MSD U-Plex cytokine assay was developed following the MSD U-Plex protocol guide and included biotinylated capture antibodies against: bovine Interleukin (IL)-1β (Biorad), bovine IL-6 (R&D Systems) and bovine tumor necrosis factor (TNF)-α (R&D Systems). The anti-IL-1β antibody was biotinylated using EZ-Link Sulfo-NHS-Biotin (Thermo Scientific) at a challenge ratio of 1:20 according to manufacturer instructions. Assay calibrators (Kingfisher) were diluted to a concentration of […] in control lithium heparin plasma, followed by 4-fold serial dilutions into plasma. The detection antibodies were sulfo-tagged following the MSD quick guide conjugation protocol using a challenge ratio of 1:20. Antibodies were used at the following concentrations: anti-IL-1β at 1 μg/mL, anti-IL-6 at 1 μg/mL and anti-TNF-α at 0.5 μg/mL. Cytokines were quantified according to manufacturer's instructions using a chemiluminescent readout. In brief, 0.5 mL of all biotinylated antibodies were diluted to 10 μg/mL with Diluent 100 and paired to their respective linkers by adding 750 μL of supplied Linker solution and incubated for 30 minutes followed by addition of Stop solution for another 30 minutes. The linked antibodies were then diluted 10-fold into Stop solution. Plates were coated by adding 50 μL of antibody solutions per well and incubated covered and shaking for 1 hour at room temperature. Plates were washed three times with PBS/Tween20 prior to samples or standards being added at 30 μL per well and incubated as above. Plates were washed three times before detection antibodies were added along with 2% goat and rabbit serum to block and incubated same as above. Plates were washed a further three times before addition of 150 μL 2X Read buffer and read immediately on the SI6000 instrument (MSD). For soluble protein levels, a BCA protein kit (Thermofisher) was used. The cytokine concentrations (pg/mL) were normalized to the total protein levels for each sample. [Bassel et. al., BMC Veterinary Research (2020) 16:168]
(§3) Therefore, a fresh whole bovine blood assay was developed with LPS as a stimulant (TLR-4 agonist) and with IL-1β and TNF-α as the read-out. Compounds of the invention were evaluated against a positive control for their ability to inhibit LPS-induced IL-1β and TNF-α as an overall evaluation of relative potency and modulation of target pathways.
For M9, the top dose of 500 μM was not high enough to determine an overstimulation of IL-1 B which was recorded as not applicable (n/a). The enhanced response indicates increased concentration of IL-1β cytokine at the drug concentration indicated. This is generally observed when compounds are out of range (high concentration) and stimulate a cellular toxicity signal. Further data supporting this hypothesis includes murine studies using a P. multocida infection in mice.
TNFα is a cell signaling protein, cytokine, that plays a key role in both acute and chronic inflammation. […]

IL-6 = test: Whole bovine blood assay, LPS-induced IL-6; conditions: fresh whole bovine blood, LPS stimulant; top drug concentration 250 μM
TNF-α = test: Whole bovine blood assay, LPS-induced TNF-α; conditions: fresh whole bovine blood, LPS stimulant; top drug concentration 250 μM
Method: as §1
as §2, with “The anti-IL-1β antibody was biotinylated using EZ-Link Sulfo-NHS-Biotin (Thermo Scientific) at a challenge ratio of 1:20 according to manufacturer instructions.” left out, “The detection antibodies were sulfo-tagged following the MSD quick guide conjugation protocol using a challenge ratio of 1:20.” left out
as §3
TNFα is a cell signaling protein, cytokine, that plays a key role in both acute and chronic inflammation. In the bovine whole blood in vitro screening assay the inhibition of TNFα as induced by stimulation by lipopolysaccharide (LPS) and as measured by half the maximal inhibitory concentration (IC50) is recognized as the primary biomarker of immunomodulation potency upon pretreatment with the compounds of the invention. IL-1 B is a mediator of the inflammation response and is involved in a number of cellular activities including proliferation, differentiation and apoptosis. IL-1ß is also released upon cellular stress or cytotoxicity or upon TLR stimulation. […] In order to estimate a therapeutic index from the in vitro assay a differential between the TNFα IC50 (immunomodulation potency) versus the perceived cellular toxicity concentration (IL-1β release or overstimulation) was utilized.

Row | SMILES | minimal effective concentration (IL-1β) [µM] | IC50 (IL-6) [µM] | IC50 (TNF-α) [µM]
1 | CCCNC[C@]1(O)[C@H](C)O[C@@H](O[C@H]2[C@H](C)[C@@H](O[C@@H]3O[C@H](C)C[C@H](N(C)S(N)(=O)=O)[C@H]3O)[C@](C)(O)C[C@@H](C)CN[C@H](C)[C@@H](O)[C@](C)(O)[C@@H](CC)OC(=O)[C@@H]2C)C[C@@]1(C)OC [Example B-140] | >250 |  | 
2 | CCCNC[C@]1(O)[C@H](C)O[C@@H](O[C@H]2[C@H](C)[C@@H](O[C@@H]3O[C@H](C)C[C@H](N(C)S(=O)(=O)c4ccc(S(C)(=O)=O)cc4)[C@H]3O)[C@](C)(O)C[C@@H](C)CN[C@H](C)[C@@H](O)[C@](C)(O)[C@@H](CC)OC(=O)[C@@H]2C)C[C@@]1(C)OC [Example B-11] | >250 |  | 
3 | CCCNC[C@]1(O)[C@H](C)O[C@@H](O[C@H]2[C@H](C)[C@@H](O[C@@H]3O[C@H](C)C[C@H](N(C)S(=O)(=O)c4ccc(S(N)(=O)=O)cc4)[C@H]3O)[C@](C)(O)C[C@@H](C)CN[C@H](C)[C@@H](O)[C@](C)(O)[C@@H](CC)OC(=O)[C@@H]2C)C[C@@]1(C)OC [Example B-15] | >250 |  | 
4 | CCCNC[C@]1(O)[C@H](C)O[C@@H](O[C@H]2[C@H](C)[C@@H](O[C@@H]3O[C@H](C)C[C@H](N(C)S(=O)(=O)c4c(C)noc4C)[C@H]3O)[C@](C)(O)C[C@@H](C)CN[C@H](C)[C@@H](O)[C@](C)(O)[C@@H](CC)OC(=O)[C@@H]2C)C[C@@]1(C)OC [Example B-4] | 40 |  | 
5 | CCCNC[C@]1(O)[C@H](C)O[C@@H](O[C@H]2[C@H](C)[C@@H](O[C@@H]3O[C@H](C)C[C@H](N(C)S(=O)(=O)c4ccccc4)[C@H]3Oc3ccc(Cl)cn3)[C@](C)(O)C[C@@H](C)CN[C@H](C)[C@@H](O)[C@](C)(O)[C@@H](CC)OC(=O)[C@@H]2C)C[C@@]1(C)OC [Example B-135] | 6 |  | 
6 | CCCNC[C@]1(O)[C@H](C)O[C@@H](O[C@H]2[C@H](C)[C@@H](O[C@@H]3O[C@H](C)C[C@H](N(C)S(=O)(=O)c4ccc(C#N)nc4)[C@H]3O)[C@](C)(O)C[C@@H](C)CN[C@H](C)[C@@H](O)[C@](C)(O)[C@@H](CC)OC(=O)[C@@H]2C)C[C@@]1(C)OC [Example B-17] | 100 |  | 
7 | CCCNC[C@]1(O)[C@H](C)O[C@@H](O[C@H]2[C@H](C)[C@@H](O[C@@H]3O[C@H](C)C[C@H](N(C)S(=O)(=O)c4ccc(Cl)cc4)[C@H]3O)[C@](C)(O)C[C@@H](C)CN(CCC)[C@H](C)[C@@H](O)[C@](C)(O)[C@@H](CC)OC(=O)[C@@H]2C)C[C@@]1(C)OC [Example B-151] |  | 10 | 8
8 | CC[C@H]1OC(=O)[C@H](C)[C@@H](O[C@H]2C[C@@](C)(OC)[C@](O)(CNc3ccc(OC)cc3)[C@H](C)O2)[C@H](C)[C@@H](O[C@@H]2O[C@H](C)C[C@H](N(C)S(=O)(=O)c3ccc(Cl)cc3)[C@H]2O)[C@](C)(O)C[C@@H](C)CN[C@H](C)[C@@H](O)[C@]1(C)O [Example B-27] |  | 33 | 17
9 | CC[C@H]1OC(=O)[C@H](C)[C@@H](O[C@H]2C[C@@](C)(OC)[C@](O)(CN3CCCCC3)[C@H](C)O2)[C@H](C)[C@@H](O[C@@H]2O[C@H](C)C[C@H](N(C)S(=O)(=O)Nc3cccc(Cl)c3)[C@H]2O)[C@](C)(O)C[C@@H](C)CN[C@H](C)[C@@H](O)[C@]1(C)O [Example C-23] |  | 10 | 9
10 | CCCNC[C@]1(O)[C@H](C)O[C@@H](O[C@H]2[C@H](C)[C@@H](O[C@@H]3O[C@H](C)C[C@H](N(C)S(=O)(=O)c4ccc(C)cc4)[C@H]3O)[C@](C)(O)C[C@@H](C)CN(CCC)[C@H](C)[C@@H](O)[C@](C)(O)[C@@H](CC)OC(=O)[C@@H]2C)C[C@@]1(C)OC [Example B-154] |  | 15 | 7
11 | CC[C@H]1OC(=O)[C@H](C)[C@@H](O[C@H]2C[C@@](C)(OC)[C@](O)(CN3CCCCC3)[C@H](C)O2)[C@H](C)[C@@H](O[C@@H]2O[C@H](C)C[C@H](N(C)S(=O)(=O)Nc3ccc(C(C)(C)C)cc3)[C@H]2O)[C@](C)(O)C[C@@H](C)CN[C@H](C)[C@@H](O)[C@]1(C)O [Example C-22] |  | 6 | 4
12 | CCCNC[C@]1(O)[C@H](C)O[C@@H](O[C@H]2[C@H](C)[C@@H](O[C@@H]3O[C@H](C)C[C@H](N(CC(C)C)S(=O)(=O)c4ccc(Cl)cc4)[C@H]3O)[C@](C)(O)C[C@@H](C)CN[C@H](C)[C@@H](O)[C@](C)(O)[C@@H](CC)OC(=O)[C@@H]2C)C[C@@]1(C)OC [Example B-150] |  | 5 | 4
13 | CCCNC[C@]1(O)[C@H](C)O[C@@H](O[C@H]2[C@H](C)[C@@H](O[C@@H]3O[C@H](C)C[C@H](N(C)S(=O)(=O)c4ccc(Cl)cc4)[C@H]3O)[C@](C)(O)C[C@@H](C)CN(C)[C@H](C)[C@@H](O)[C@](C)(O)[C@@H](CC)OC(=O)[C@@H]2C)C[C@@]1(C)OC [Example B-153] |  | 10 | 7
14 | CC[C@H]1OC(=O)[C@H](C)[C@@H](O[C@H]2C[C@@](C)(OC)[C@](O)(CN3CCCCC3)[C@H](C)O2)[C@H](C)[C@@H](O[C@@H]2O[C@H](C)C[C@H](N(C)S(=O)(=O)Nc3ccc(C)c(C)c3)[C@H]2O)[C@](C)(O)C[C@@H](C)CN[C@H](C)[C@@H](O)[C@]1(C)O [Example C-33] |  | 7 | 7
15 | CC[C@H]1OC(=O)[C@H](C)[C@@H](O[C@H]2C[C@@](C)(OC)[C@](O)(CNCC(C)C)[C@H](C)O2)[C@H](C)[C@@H](O[C@@H]2O[C@H](C)C[C@H](N(C)S(=O)(=O)Nc3ccc(C(F)(F)F)cc3)[C@H]2O)[C@](C)(O)C[C@@H](C)CN[C@H](C)[C@@H](O)[C@]1(C)O [Example B-85] |  | 26 | 9
16 | CC[C@H]1OC(=O)[C@H](C)[C@@H](O[C@H]2C[C@@](C)(OC)[C@](O)(CN3CCCCC3)[C@H](C)O2)[C@H](C)[C@@H](O[C@@H]2O[C@H](C)C[C@H](N(C)S(=O)(=O)Nc3ccc(Cl)c(Cl)c3)[C@H]2O)[C@](C)(O)C[C@@H](C)CN[C@H](C)[C@@H](O)[C@]1(C)O [Example C-28] |  | 25 | 25
